Laboratory results taken from patent publication US11485751B2, “Apramycin derivatives” (WAYNE STATE UNIVERSITY, priority 2017, dated 2022).
pIC50: −log10 of the molar value. Values after ≈ are worked out from the molar mass of the structure shown.

Assays:
[1] = tested on: Engineered E. coli pH426 rmtC; assay: Activity against G1405-methylated 16S-rRNA, E. coli pH426 rmtC; type: cell-based
In short: (§1)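 Broth microdilution per CLSI M07-A10; readout MIC.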

[2] = tested on: clinical isolates carrying APH(3′)-III; assay: MIC broth microdilution, APH(3′)-III; type: cell-based; conditions: IMM Univ. Zurich
Text: (§2) Minimal inhibitory concentrations (MIC) have been determined by broth microdilution assays (CLSI. Methods for Dilution Antimicrobial Susceptibility Tests for Bacteria That Grow Aerobically; Approved Standard—Tenth Edition. CLSI document M07-A10. Wayne, Pa.: Clinical and Laboratory Standards Institute; 2015.).
(§3) Minimal inhibitory concentrations (MICs, […]) against clinical isolates from Institute of Medical Microbiology, Univ. Zurich, and the IC50 values for bacterial, human mitochondrial and human cytosolic ribosomes are indicated.

AG031 P. aer. APH(3′)-II = assay: Antibacterial activity, clinical isolate AG031; type: cell-based; design: unit not given here
In short: (§4)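 Susceptibility was tested per CLSI aerobic dilution protocol using microbroth format, with the MIC taken as the end point.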

AG173 E. coli AAC(3)-IV = assay: Antibacterial activity, clinical isolate AG173; type: cell-based
In short: as §4

[3] = tested on: AG215, Klebsiella pneumonia; assay: MIC reference strain AG215; type: cell-based; conditions: Klebsiella pneumoniae, reference strain; read-out: MIC AG215 K. pneumonia
In short: (§5)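 The method determines minimal inhibitory concentrations using the standard CLSI microdilution procedure in liquid medium.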

[4] = tested on: clinical isolates carrying APH(3′)-I; assay: MIC broth microdilution, APH(3′)-I; type: cell-based; conditions: IMM Univ. Zurich
Text: as §2, §3

[5] = tested on: Engineered E. coli pH430 WT; assay: Activity, engineered E. coli pH430 WT; type: cell-based; conditions: wild type
In short: as §1

bacterial ribosomes = assay: in-vitro translation assay, bacterial ribosomes; type: biochemical
In short: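 Each ribosome preparation (bacterial, human chimeric as the mitochondrial model, rabbit reticulocyte as the cytosolic model) drives in-vitro translation with the test compound present. Inhibition of translation gives the IC50.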

[6] = tested on: Engineered E. coli pH427 rmtF; assay: Activity against G1405-methylated 16S-rRNA, E. coli pH427 rmtF; type: cell-based
In short: as §1

AG001 E. coli WT = assay: Antibacterial activity, clinical isolate AG001; type: cell-based; design: unit not given here
In short: as §4

[7] = tested on: Engineered E. coli AG103 armA; assay: Activity against G1405-methylated 16S-rRNA, E. coli AG103 armA; type: cell-based
Text: as §2

AG032 P. aer. APH(3′)-II = assay: Antibacterial activity, clinical isolate AG032; type: cell-based; design: unit not given here
In short: as §4

[8] = tested on: AG042 MRSA AAC(6′)-I ANT(4′)-I APH(2′); assay: Antibacterial activity, clinical isolate AG042; type: cell-based; design: unit not given here
In short: as §4

[9] = tested on: AG212, Escherichia coli ATCC25922; assay: MIC reference strain AG212; type: cell-based; conditions: Escherichia coli; reference strain ATCC25922; read-out: MIC AG212 E. coli
In short: as §5

[10] = tested on: AG225, Acinetobacter baumannii pittii; assay: MIC reference strain AG225; type: cell-based; conditions: Acinetobacter baumannii, reference strain; read-out: MIC AG225 A. baumannii
In short: as §5

[11] = tested on: clinical isolates carrying AAC(3)-IV; assay: MIC broth microdilution, AAC(3)-IV; type: cell-based; conditions: clinical isolates, IMM Univ. Zurich; AAC(3)-IV; read-out: MIC AAC(3)-IV
In short: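 Clinical isolates supplied by the Zurich Institute of Medical Microbiology were tested for MIC (μg/ml) using CLSI M07-A10 broth microdilution.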

[12] = tested on: clinical isolates carrying APH(3′)-VI; assay: MIC broth microdilution, APH(3′)-VI; type: cell-based; conditions: IMM Univ. Zurich
Text: as §2, §3

[13] = tested on: AG039 MRSA AAC(6′)-I ANT(4′)-I; assay: Antibacterial activity, clinical isolate AG039; type: cell-based
In short: as §4

[14] = tested on: clinical isolates carrying APH(3′)-II; assay: MIC broth microdilution, APH(3′)-II; type: cell-based; conditions: clinical isolates, IMM Univ. Zurich; APH(3′)-II; read-out: MIC APH(3′)-II
Text: as §2, §3

[15] = tested on: Engineered E. coli pH425 rmtB; assay: Activity against G1405-methylated 16S-rRNA, E. coli pH425 rmtB; type: cell-based
In short: as §1

[16] = tested on: human mitochondrial ribosomes; assay: in-vitro translation assay, human mitochondrial (human chimeric) ribosomes; type: biochemical
In short: (§6)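 Cell-free translation; IC50 read-out. Mito = human chimeric ribosomes; cytosolic = rabbit reticulocyte ribosomes; bacterial ribosomes run in the same assay format.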

[17] = tested on: AG290, Enterobacter cloacae; assay: MIC reference strain AG290; type: cell-based; conditions: Enterobacter cloacae; reference strain; read-out: MIC AG290 E. cloacae
In short: as §5

[18] = tested on: AG220, Pseudomonas aeruginosa ATCC27853; assay: MIC reference strain AG220; type: cell-based; conditions: Pseudomonas aeruginosa, ATCC27853, reference strain ATCC27853; read-out: MIC AG220 P. aeruginosa
In short: as §5

AG163 E. coli APH(3′)-I = assay: Antibacterial activity, clinical isolate AG163; type: cell-based
Text: as §2
Table 4 and 5 show the antibacterial activity of the compounds of the invention against bacterial reference strains (table 4) and against representative clinical isolates (table 5).

AG055 E. coli WT = assay: Antibacterial activity, clinical isolate AG055; type: cell-based; design: unit not given here
In short: as §4

AG038 MRSA = assay: Antibacterial activity, clinical isolate AG038; type: cell-based; design: unit not given here
In short: as §4

AG003 E. coli AAC(3)-II = assay: Antibacterial activity, clinical isolate AG003; type: cell-based
In short: as §4

[19] = tested on: human cytosolic ribosomes; assay: in-vitro translation assay, human cytosolic ribosomes; type: biochemical
In short: as §6

[20] = tested on: AG033 P. aer. APH(3′)-II AAC(6′)-I; assay: Antibacterial activity, clinical isolate AG033; type: cell-based; design: unit not given here
In short: as §4

[21] = tested on: Engineered E. coli pH424 armA; assay: Activity against G1405-methylated 16S-rRNA, E. coli pH424 armA; type: cell-based
In short: as §1

[22] = tested on: SZ380, Mycobacterium smegmatis; assay: MIC reference strain SZ380; type: cell-based; conditions: Mycolicibacterium smegmatis, reference strain; read-out: MIC SZ380 M. smegmatis
In short: as §5

ATCC19977 M. abcessus = assay: MIC reference strain ATCC19977; type: cell-based; conditions: read-out: MIC ATCC19977 M. abcessus
In short: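 Broth microdilution, CLSI dilution method for aerobic bacteria; read-out is minimal inhibitory concentration (MIC).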

SMILES	Activity E. coli pH426 rmtC [1]	MIC [2] [µg/mL]	Antibacterial activity AG031 P. aer. APH(3′)-II (AG031 P. aer. APH(3′)-II)	Antibacterial activity AG173 E. coli AAC(3)-IV (AG173 E. coli AAC(3)-IV)	MIC [3] [µg/mL]	MIC [4] [µg/mL]	Activity E. coli pH430 WT [5]	pIC50 (bacterial ribosomes)	Activity E. coli pH427 rmtF [6]	Antibacterial activity AG001 E. coli WT (AG001 E. coli WT)	Activity E. coli AG103 armA [7]	Antibacterial activity AG032 P. aer. APH(3′)-II (AG032 P. aer. APH(3′)-II)	Antibacterial activity AG042 MRSA AAC(6′)-I ANT(4′)-I APH(2′) [8]	MIC [9] [µg/mL]	MIC [10] [µg/mL]	MIC [11] [µg/mL]	MIC [12] [µg/mL]	Antibacterial activity AG039 MRSA AAC(6′)-I ANT(4′)-I [13]	MIC [14] [µg/mL]	Activity E. coli pH425 rmtB [15]	further results
CNC1C(OC2OC(CO)C(N)C(O)C2O)OC2CC(N)C(OC3C(N)CC(N)C(O)C3OC3OCC(O)C3O)OC2C1O (stereo not drawn) [DC146, 5-O-β-D—(Erythrofuranosyl) apramycin]	8	1 (≈ 1.56 µM)	64	128	4	4 (≈ 6.23 µM)	8	7.05	4	16	1	64	16	16	8	32 (≈ 49.9 µM)	8 (≈ 12.5 µM)	16-32	4 (≈ 6.23 µM)	4	pIC50 [16]: 3.67; MIC [17]: 4 µg/mL; MIC [18]: 32 µg/mL; Antibacterial activity AG163 E. coli APH(3′)-I (AG163 E. coli APH(3′)-I): 8; Antibacterial activity AG055 E. coli WT (AG055 E. coli WT): 16; Antibacterial activity AG038 MRSA (AG038 MRSA): 16-32; Antibacterial activity AG003 E. coli AAC(3)-II (AG003 E. coli AAC(3)-II): 16; pIC50 [19]: 3.49; Antibacterial activity AG033 P. aer. APH(3′)-II AAC(6′)-I [20]: 64-128; Activity E. coli pH424 armA [21]: 4
CNC1C(OC2OC(CO)C(N)C(O)C2O)OC2CC(N)C(OC3C(N)CC(N)C(O)C3OC3OC(CNC=O)C(O)C3O)OC2C1O [DC177, 5-O-β-(5′″-Formamido-5′″-deoxy-D-ribefuranosyl) apramycin]	16	2 (≈ 2.86 µM)	>32	>64	4	4 (≈ 5.72 µM)	8	6.64	8	8	2-4	>32	32	8	16	> 32	8 (≈ 11.4 µM)	16-32	8 (≈ 11.4 µM)	8	MIC [22]: 2 µg/mL; pIC50 [16]: 3.40; MIC [17]: 8 µg/mL; MIC [18]: > 64 µg/mL; Antibacterial activity AG163 E. coli APH(3′)-I (AG163 E. coli APH(3′)-I): 8; Antibacterial activity AG055 E. coli WT (AG055 E. coli WT): 16; MIC (ATCC19977 M. abcessus): 16 µg/mL (≈ 22.9 µM); Antibacterial activity AG038 MRSA (AG038 MRSA): 32; Antibacterial activity AG003 E. coli AAC(3)-II (AG003 E. coli AAC(3)-II): 8; pIC50 [19]: < 3.30; Antibacterial activity AG033 P. aer. APH(3′)-II AAC(6′)-I [20]: >32; Activity E. coli pH424 armA [21]: 8
